Type in all cases: biochemical
Experiment [1] concerns the target LCK (Homo sapiens, UniProt P06239). The experiment in a line: Inhibition of a panel of kinases, in vitro HotSpot kinase assay: LCK. As to conditions: for IC50: Table 13, A compounds, 1 μM ATP, read-out: IC50 LCK; for LCK* IC50 relative to Btk IC50 value: fold relative to Btk IC50 value.
The target of experiment [2] is T1, ITK (Homo sapiens, UniProt Q08881).
T1 sequence (Q08881 1-620): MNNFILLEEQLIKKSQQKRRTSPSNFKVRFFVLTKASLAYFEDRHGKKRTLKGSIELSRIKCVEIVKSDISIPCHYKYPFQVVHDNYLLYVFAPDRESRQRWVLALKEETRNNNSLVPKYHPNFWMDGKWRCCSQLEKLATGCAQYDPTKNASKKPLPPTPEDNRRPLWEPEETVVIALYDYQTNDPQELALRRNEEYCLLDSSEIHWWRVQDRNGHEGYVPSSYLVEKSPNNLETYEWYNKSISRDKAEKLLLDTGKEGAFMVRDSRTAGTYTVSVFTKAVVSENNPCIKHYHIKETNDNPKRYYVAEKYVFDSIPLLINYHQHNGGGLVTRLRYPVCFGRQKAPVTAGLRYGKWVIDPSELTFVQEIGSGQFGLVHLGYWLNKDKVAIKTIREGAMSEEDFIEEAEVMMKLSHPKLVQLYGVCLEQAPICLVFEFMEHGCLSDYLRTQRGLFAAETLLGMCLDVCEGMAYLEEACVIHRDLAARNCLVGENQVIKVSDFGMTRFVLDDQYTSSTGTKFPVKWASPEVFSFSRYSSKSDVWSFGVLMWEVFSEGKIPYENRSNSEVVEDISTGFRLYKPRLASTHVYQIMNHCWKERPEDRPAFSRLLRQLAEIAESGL
The experiment in a line: Inhibition of a panel of kinases, in vitro HotSpot kinase assay: ITK. To be noted: for IC50: Table 13, A compounds, 1 μM ATP; for ITK* IC50 relative to Btk IC50 value: fold relative to Btk IC50 value. Here is the method: (§1) The degree of inhibition of a panel of kinases is determined using the in vitro HotSpot kinase assay (purified enzymes, ^33P-ATP, an appropriate substrate and 1 μM ATP).

The target of experiment [3] is T2, BTK-WT (Homo sapiens, UniProt Q06187).
T2 construct: purified from insect cells as a full-length construct containing an N-terminal 6X-His tag; His6 (N); made in house; host or cells: insect cells (baculovirus Sf21 in Method B)
The experiment can be described thus: Btk in vitro inhibitory activity (one of Method A TR-FRET, Method B electrophoretic mobility shift, Method C radiometric filter binding). Background: Mobility shift assays separate free from complexed probe on a gel.

Experiment [4] addresses EGFR (Homo sapiens, UniProt P00533). The experiment in a line: Inhibition of a panel of kinases, in vitro HotSpot kinase assay: EGFR. As to conditions: for IC50: Table 13, A compounds, 1 μM ATP; for EGFR* IC50 relative to Btk IC50 value: fold relative to Btk IC50 value. Here is the method: as §1
Setting [5] is: Table 13, A compounds, read-out: IC50 BTK-WT.

The term IC50 denotes the concentration needed to halve the response being measured.

Read-outs that look alike come from different tables or passages of the source.

T2 sequence (Q06187 whole entry): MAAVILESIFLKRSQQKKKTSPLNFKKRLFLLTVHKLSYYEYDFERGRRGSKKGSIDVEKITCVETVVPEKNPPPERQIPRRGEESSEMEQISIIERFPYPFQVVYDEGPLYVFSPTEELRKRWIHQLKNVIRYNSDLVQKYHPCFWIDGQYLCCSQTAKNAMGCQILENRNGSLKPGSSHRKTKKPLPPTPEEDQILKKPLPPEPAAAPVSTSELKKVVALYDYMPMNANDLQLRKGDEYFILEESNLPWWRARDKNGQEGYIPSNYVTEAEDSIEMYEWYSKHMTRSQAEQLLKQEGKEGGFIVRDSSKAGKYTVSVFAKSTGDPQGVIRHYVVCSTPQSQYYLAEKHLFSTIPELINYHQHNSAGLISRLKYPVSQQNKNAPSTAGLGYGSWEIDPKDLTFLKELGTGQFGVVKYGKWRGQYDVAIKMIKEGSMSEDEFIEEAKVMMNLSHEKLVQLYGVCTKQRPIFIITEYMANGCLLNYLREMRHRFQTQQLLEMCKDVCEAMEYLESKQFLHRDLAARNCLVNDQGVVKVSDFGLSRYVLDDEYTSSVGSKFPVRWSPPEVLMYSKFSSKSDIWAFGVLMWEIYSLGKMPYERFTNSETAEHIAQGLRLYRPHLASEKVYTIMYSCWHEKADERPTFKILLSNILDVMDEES
LCK, sequence (P06239 whole entry): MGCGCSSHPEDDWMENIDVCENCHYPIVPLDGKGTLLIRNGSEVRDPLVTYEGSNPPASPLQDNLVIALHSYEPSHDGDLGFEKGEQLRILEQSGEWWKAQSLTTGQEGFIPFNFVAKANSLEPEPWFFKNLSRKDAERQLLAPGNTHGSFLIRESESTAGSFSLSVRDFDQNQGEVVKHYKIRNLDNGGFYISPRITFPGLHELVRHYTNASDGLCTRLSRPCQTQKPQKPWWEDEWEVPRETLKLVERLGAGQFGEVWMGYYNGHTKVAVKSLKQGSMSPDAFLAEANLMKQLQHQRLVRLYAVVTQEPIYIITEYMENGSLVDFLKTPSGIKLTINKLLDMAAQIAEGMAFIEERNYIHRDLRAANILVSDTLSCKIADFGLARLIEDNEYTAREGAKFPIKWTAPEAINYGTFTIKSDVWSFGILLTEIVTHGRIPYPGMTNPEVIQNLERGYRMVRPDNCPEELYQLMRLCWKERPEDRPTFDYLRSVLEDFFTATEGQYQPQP
EGFR, sequence (P00533 25-1210): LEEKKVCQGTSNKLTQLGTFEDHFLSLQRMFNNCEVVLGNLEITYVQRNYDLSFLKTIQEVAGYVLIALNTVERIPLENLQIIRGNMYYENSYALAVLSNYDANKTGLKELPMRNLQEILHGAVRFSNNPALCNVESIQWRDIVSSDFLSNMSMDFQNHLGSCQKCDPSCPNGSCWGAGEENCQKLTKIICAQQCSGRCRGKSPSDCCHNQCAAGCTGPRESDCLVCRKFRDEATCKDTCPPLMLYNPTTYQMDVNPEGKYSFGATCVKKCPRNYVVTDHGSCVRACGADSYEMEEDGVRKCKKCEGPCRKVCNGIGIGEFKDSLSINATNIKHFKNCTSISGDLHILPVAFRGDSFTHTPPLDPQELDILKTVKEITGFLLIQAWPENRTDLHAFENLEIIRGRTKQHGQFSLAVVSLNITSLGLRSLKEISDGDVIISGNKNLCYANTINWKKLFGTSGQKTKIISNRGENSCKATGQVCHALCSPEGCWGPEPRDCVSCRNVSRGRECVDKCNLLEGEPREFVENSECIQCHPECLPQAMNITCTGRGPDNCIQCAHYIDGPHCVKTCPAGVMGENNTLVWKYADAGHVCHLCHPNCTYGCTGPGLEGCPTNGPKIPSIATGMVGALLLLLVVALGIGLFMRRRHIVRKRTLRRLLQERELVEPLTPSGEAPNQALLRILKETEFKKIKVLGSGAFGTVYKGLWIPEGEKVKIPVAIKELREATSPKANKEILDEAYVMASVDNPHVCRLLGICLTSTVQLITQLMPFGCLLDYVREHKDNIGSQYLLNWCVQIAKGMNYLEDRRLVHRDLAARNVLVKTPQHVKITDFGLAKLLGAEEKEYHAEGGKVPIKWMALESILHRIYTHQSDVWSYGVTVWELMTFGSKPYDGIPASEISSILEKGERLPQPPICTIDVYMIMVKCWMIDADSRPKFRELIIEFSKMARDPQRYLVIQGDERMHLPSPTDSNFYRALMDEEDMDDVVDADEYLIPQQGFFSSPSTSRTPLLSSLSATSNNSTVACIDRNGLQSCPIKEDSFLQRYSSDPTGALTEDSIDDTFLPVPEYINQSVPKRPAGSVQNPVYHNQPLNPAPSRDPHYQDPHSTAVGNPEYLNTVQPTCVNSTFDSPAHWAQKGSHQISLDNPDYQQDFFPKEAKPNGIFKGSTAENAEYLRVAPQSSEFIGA

As for `CN1CCN(c2ccc(Nc3nc(N4CCC[C@@H](n5ccc6cc(C7CC7)ccc6c5=O)C4)cnc3C(N)=O)cc2)CC1` [Example A-99, 5-[(3R)-3-(6-cyclo-propyl-1-oxo-1,2-dihydroisoquinolin-2-yl)piperidin-1-yl]-3-{[4-(4-methylpiperazin-1-yl)phenyl]amino}pyrazine-2-carboxamide], the IC50 in experiment [1] was 100 to 1000 nM; in experiment [2] it was 100 to 1000 nM; in experiment [3] (setting [5]) it was no more than 10 nM; in experiment [4], greater than 10000 nM.
For `Cc1nn(C)cc1Nc1nc(N2CCC[C@@H](NC(=O)c3ccc(C4CC4)cc3)[C@H]2C)cnc1C(N)=O` [Example A-192, 5-((2R,3R)-3-(4-cyclopropylbenzamido)-2-methylpiperidin-1-yl)-3-(1,3-dimethyl-1H-pyrazol-4-ylamino)pyrazine-2-carboxamide], the IC50 in experiment [1] was greater than 10000 nM; in experiment [2], greater than 10000 nM; in experiment [3] (setting [5]), 10 to 100 nM; in experiment [4] it was 1000 to 10000 nM.
Consider `Cc1c(Nc2nc(N3CCC[C@@H](NC(=O)c4ccc(C5CC5)cc4)[C@H]3C)cnc2C(N)=O)cnn1C` [Example A-191, 5-((2R,3)R-3-(4-cyclopropylbenzamido)-2-methylpiperidin-1-yl)-3-(1,5-dimethyl-1H-pyrazol-4-ylamino)pyrazine-2-carboxamide], for which the IC50 in experiment [1] was 1000 to 10000 nM; in experiment [2] it was greater than 10000 nM; in experiment [3] (setting [5]), 10 to 100 nM; in experiment [4], 1000 to 10000 nM.
For `C[C@@H]1[C@H](NC(=O)c2ccc(C3CC3)cc2)CCCN1c1cnc(C(N)=O)c(Nc2cnn(C3CC3)c2)n1` [Example A-205, 3-[(1-cyclopropyl-1H-pyrazol-4-yl)amino]-5-[(2R,3R)-3-(4-cyclopropylbenzamido)-2-methylpiperidin-1-yl]pyrazine-2-carboxamide], in experiment [1], the “LCK* IC50 relative to Btk IC50 value” was 102x. The “ITK* IC50 relative to Btk IC50 value” in experiment [2] was 135x. Further, the IC50 in experiment [3] (read-out: BTK-WT IC50) was less than 10 nM. The “EGFR* IC50 relative to Btk IC50 value” in experiment [4] was found to be 730x.
On to `C[C@@H]1[C@H](NC(=O)c2ccc(C(C)(C)O)cc2)CCCN1c1cnc(C(N)=O)c(Nc2cnn(C)c2)n1` [Example A-200, 5-((2R,3R)-3-(4-(2-hydroxypropan-2-yl)benzamido)-2-methyl-piperidin-1-yl)-3-(1-methyl-1H-pyrazol-4-yl-amino)pyrazine-2-carboxamide], for which the “LCK* IC50 relative to Btk IC50 value” in experiment [1] is 88x. In experiment [2], the “ITK* IC50 relative to Btk IC50 value” is given as 99x. The IC50 in experiment [3] (read-out: BTK-WT IC50) is less than 10 nM. The “EGFR* IC50 relative to Btk IC50 value” in experiment [4] turned out to be 380x.
As to `C[C@@H]1[C@H](NC(=O)c2cc3c(n2C)CC(C)(C)C3)CCCN1c1cnc(C(N)=O)c(Nc2cnn(C)c2)n1` [Example A-193, N-((2R,3R)-1-(5-carbamoyl-6-(1-methyl-1H-pyrazol-4-ylamino)pyrazin-2-yl)-2-methylpiperidin-3-yl)-1,5,5-trimethyl-1,4,5,6-tetrahydrocyclo-penta[b]pyrrole-2-carboxamide], the half-maximal inhibitory concentration (IC50) in experiment [1] was 100 to 1000 nM; in experiment [2] it was 100 to 1000 nM; in experiment [3] (setting [5]) it was no more than 10 nM; in experiment [4], 100 to 1000 nM.
In the case of `C[C@@H]1[C@H](NC(=O)c2ccc(C3CC3)cc2)CCCN1c1nnc(C(N)=O)c(Nc2cnn(C)c2)n1` [Example A-201, 3-[(2R,3R)-3-(4-cyclopropylbenzamido)-2-methylpiperidin-1-yl]-5-[(1-methyl-1H-pyrazol-4-yl)amino]-1,2,4-triazine-6-carboxamide], in experiment [1], the “LCK* IC50 relative to Btk IC50 value” is recorded as 49x. Also, the “ITK* IC50 relative to Btk IC50 value” in experiment [2] amounted to 234x. The IC50 in experiment [3] (read-out: BTK-WT IC50) is less than 10 nM. Also, in experiment [4], the “EGFR* IC50 relative to Btk IC50 value” is listed as 2962x.
On the same counts, the results for `Cn1cc(Nc2nc(N3CCC[C@@H](NC(=O)c4ccc(C5CC5)cc4)C3)nnc2C(N)=O)cn1` [Example A-202, 3-[(3R)-3-(4-cyclopropylbenzamido)piper-idin-1-yl]-5-[(1-methyl-1H-pyrazol-4-yl)amino]-1,2,4-triazine-6-carboxamide] are 107x, 360x, less than 10 nM and 5208x.
As for `C[C@@H]1[C@H](NC(=O)c2ccc(C3COC3)cc2)CCCN1c1cnc(C(N)=O)c(Nc2cnn(C)c2)n1` [Example A-206, 3-(1-methyl-1H-pyrazol-4-ylamino)-5-((2R,3R)-2-methyl-3-(4-(oxetan-3-yl)benzamido)piperidin-1-yl)pyrazine-2-carboxamide], the “LCK* IC50 relative to Btk IC50 value” in experiment [1] was found to be 63x. For the same compound, the “ITK* IC50 relative to Btk IC50 value” in experiment [2] was determined as 157x. Moreover, the IC50 in experiment [3] (read-out: BTK-WT IC50) is less than 10 nM. Also, the “EGFR* IC50 relative to Btk IC50 value” in experiment [4] was 896x.
In the case of `C[C@@H]1[C@H](NC(=O)N(C)C)CCCN1c1cnc(C(N)=O)c(Nc2ccc(N3CCN(C)CC3)cc2)n1` [Example A-100, 5-[(2R,3R)-3-[(dimethylcarbamoyl)amino]-2-methylpiperidin-1-yl]-3-{[4-(4-methylpiperazin-1-yl)phenyl]amino}pyrazine-2-carboxamide], the 50% inhibitory concentration (IC50) in experiment [1] is 100 to 1000 nM; in experiment [2] it was 100 to 1000 nM; in experiment [3] (setting [5]), no more than 10 nM; in experiment [4] it was 100 to 1000 nM.
As for `C[C@@H]1[C@H](NC(=O)c2ccc(C3CC3)cc2)CCCN1c1cnc(C(N)=O)c(Nc2cnn(C(F)F)c2)n1` [Example A-198, 5-[(2R,3R)-3-(4-cyclopropylbenzamido)-2-methylpiperidin-1-yl]-3-{[1-(difluoromethyl)-1H-pyrazol-4-yl]amino}pyrazine-2-carboxamide], in experiment [1], the “LCK* IC50 relative to Btk IC50 value” came to 112x. The “ITK* IC50 relative to Btk IC50 value” in experiment [2] is 133x. Also, the 50% inhibitory concentration (IC50) in experiment [3] (read-out: BTK-WT IC50) is less than 10 nM. Also, the “EGFR* IC50 relative to Btk IC50 value” in experiment [4] is 1276x.
In the case of `C[C@@H]1[C@H](NC(=O)N(C)C)CCCN1c1cnc(C(N)=O)c(Nc2ccc(C(=O)N3CCN(C)CC3)cc2)n1` [Example A-98, 5-[(2R,3R)-3-[(dimethylcarbamoyl)amino]-2-methylpiperidin-1-yl]-3-{[4-(4-methylpiperazine-1-carbonyl)phenyl]amino}pyrazine-2-carboxamide], the IC50 in experiment [1] is 100 to 1000 nM; in experiment [2] it was 1000 to 10000 nM; in experiment [3] (setting [5]), no more than 10 nM; in experiment [4] it was 1000 to 10000 nM.
In the case of `C[C@@H]1[C@H](NC(=O)c2ccc(C(C)(C)C)cc2)CCCN1c1cnc(C(N)=O)c(Nc2cnn(C)c2)n1` [Example A-203, 5-((2R,3R)-3-(4-tert-butylbenzamido)-2-methylpiperidin-1-yl)-3-(1-methyl-1H-pyrazol-4-ylamino)pyrazine-2-carboxamide], the “LCK* IC50 relative to Btk IC50 value” in experiment [1] was 684x. The “ITK* IC50 relative to Btk IC50 value” in experiment [2] is reported as 787x. The IC50 in experiment [3] (read-out: BTK-WT IC50) was less than 10 nM. Besides, the “EGFR* IC50 relative to Btk IC50 value” in experiment [4] is reported as 3304x.

The record behind these values is US20210070748A1, “INHIBITORS OF BRUTONS TYROSINE KINASE” (Pharmacyclics LLC, priority 2015, published 2021).
